{"source": "patent US10300070B2", "about": "“Metabolically-activated drug conjugates to overcome resistance in cancer therapy” (The Brigham and Women's Hospital, Inc., priority 2014, dated 2019)", "tested_on": "CD44 and GLUT1", "test": "Confocal microscopy of CD44 and GLUT-1 in residual tumors, orthotopic syngeneic mammary carcinoma model (4T-1)", "type": "in vivo, mice", "details": "72 hours after docetaxel at MTD (10 mg/kg i.v.) vs vehicle", "experimental": "1 million 4T-1 mouse mammary carcinoma cells suspended in 100 μL PBS were injected per left flank of 5-6 week old Balb/C (heterotopic) or mammary fat pad (orthotopic). Docetaxel (DTX) was dissolved in pure Ethanol at a concentration of 50 mg/ml mixed 1:1 with Polysorbate 80 (Tween 80) and brought to a final working concentration with PBS. Tumor volumes were assessed by the following formula: (Width×Width×length)/2 and values were utilized to calculate tumor specific growth rate (SGR) by the algorhythm (ln [V2/V1]/[t2−t1)] where V=volume and t=time in days^64. For in vivo analysis of 2-NBDG uptake, mice were treated as indicated (i.e. Docetaxel intratumoral or intravenously) and monitored until tumors reached ˜300 mm^3. Subsequently, mice were administered a 10 mg/kg i.v. injection of 2-NBDG 2 hours prior to sacrificing and harvesting tumors for confocal microscopic analysis by frozen section (described below). […] Glucose quantitation (mg/dL) was measured using the onetouch lifescan glucose monitor (Life Scan, Inc. Militipas, Calif.) by calculating mg of glucose per volume of tissue homogenate (in PBS) and normalized as a ratio of mg/dL of glucose to mg of tissue homogenized. Typically, >250 mg of tissue was homogenized in 50 μL of PBS to achieve a readable output. […]"}
{"smiles": "CC(=O)O[C@@]12CO[C@@H]1C[C@H](O)[C@@]1(C)C(=O)[C@H](O)C3=C(C)[C@@H](OC(=O)[C@H](O)[C@@H](NC(=O)OC(C)(C)C)c4ccccc4)C[C@@](O)([C@@H](OC(=O)c4ccccc4)[C@H]21)C3(C)C", "note": "[docetaxel]", "values": [{"measurement": "expression of CD44 and GLUT1 in residual tumors", "result": "enhanced expression of both CD44 and GLUT1"}]}
